Assay results: US9777001B2 (priority 2014, dated 2017)
Counter-ions that a name gives are not always drawn.

molecular target: human plasma kallikrein (Homo sapiens, UniProt P03952); assay: biochemical; conditions: purified human plasma kallikrein, substrate S-2302, sodium phosphate buffer pH 7.5
Sequence (P03952 391-638 limits assumed): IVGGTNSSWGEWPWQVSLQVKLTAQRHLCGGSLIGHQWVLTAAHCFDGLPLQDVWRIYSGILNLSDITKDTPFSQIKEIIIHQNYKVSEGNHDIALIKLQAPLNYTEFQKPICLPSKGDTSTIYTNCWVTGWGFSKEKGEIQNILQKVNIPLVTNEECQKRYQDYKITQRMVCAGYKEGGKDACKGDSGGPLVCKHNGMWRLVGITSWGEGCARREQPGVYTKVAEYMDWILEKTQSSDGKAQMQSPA
Sequence (P03952 20-390 partner limits assumed): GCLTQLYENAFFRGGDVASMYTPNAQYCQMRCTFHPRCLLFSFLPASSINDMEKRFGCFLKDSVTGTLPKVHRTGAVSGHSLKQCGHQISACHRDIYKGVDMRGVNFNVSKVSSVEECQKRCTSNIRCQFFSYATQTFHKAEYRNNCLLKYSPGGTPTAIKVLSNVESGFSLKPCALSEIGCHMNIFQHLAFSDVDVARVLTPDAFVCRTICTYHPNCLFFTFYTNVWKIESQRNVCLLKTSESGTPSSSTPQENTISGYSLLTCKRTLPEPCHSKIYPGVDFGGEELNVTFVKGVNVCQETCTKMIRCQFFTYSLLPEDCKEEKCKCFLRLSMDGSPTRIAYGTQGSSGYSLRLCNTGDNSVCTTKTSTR

Row | Ki | SMILES
1 | 19 nM | C[C@@H]1CCC[C@H](n2cnc(-c3cc(Cl)ccc3-n3cc(C#N)nn3)cc2=O)c2cc(ccn2)-c2ccc(C#N)cc2NC1=O [Example 38, (10R,14S)-14-{4-[5-Chloro-2-(4-cyano-1H-1,2,3-triazol-1-yl)phenyl]-6-oxo-1,6-dihydropyrimidin-1-yl}-10-methyl-9-oxo-8,16-diazatricyclo[13.3.1.0^2,7]nonadeca-1(19),2(7),3,5,15,17-hexaene-5-carbonitrile trifluoroacetate]
2 | 13 nM | C[C@@H]1CC(O)C[C@H](n2cnc(-c3c(-n4cc(Cl)nn4)ccc(Cl)c3F)cc2=O)c2cc(ccn2)-c2cc(F)ccc2NC1=O (stereo partly drawn) [Example 40, (10R,14S)-14-{4-[3-chloro-6-(4-chloro-1H-1,2,3-triazol-1-yl)-2-fluorophenyl]-6-oxo-1,6-dihydropyrimidin-1-yl}-4-fluoro-12-hydroxy-10-methyl-8,16-diazatricyclo[13.3.1.0^2,7]nonadeca-1(19),2(7),3,5,15,17-hexaen-9-one trifluoroacetate]
3 | 78 nM | COC(=O)Nc1ccc2c(c1)NC(=O)[C@H](C)CCC[C@H](n1cnc(-c3cccc(Cl)c3F)cc1=O)c1cc-2ccn1 [Example 45, methyl N-[(10R,14S)-14-[4-(3-chloro-2-fluorophenyl)-6-oxo-1,6-dihydropyrimidin-1-yl]-10-methyl-9-oxo-8,16-diazatricyclo[13.3.1.0^2,7]nonadeca-1(18),2,4,6,15(19),16-hexaen-5-yl]carbamate trifluoroacetate]
4 | 13 nM | COC(=O)Nc1ccc2c(c1)NC(=O)[C@H](C)CCC[C@H](n1cnc(-c3cc(Cl)ccc3F)cc1=O)c1cc-2ccn1 [Example 49, methyl N-[(10R,14S)-14-[4-(5-chloro-2-fluorophenyl)-6-oxo-1,6-dihydropyrimidin-1-yl]-10-methyl-9-oxo-8,16-diazatricyclo[13.3.1.0^2,7]nonadeca-1(19),2(7),3,5,15,17-hexaen-5-yl]carbamate trifluoroacetate]
5 | 41 nM | C[C@@H]1CCC[C@H](n2cnc(-c3c(-n4ccnn4)ccc(Cl)c3F)cc2=O)c2cc(ccn2)-c2c(ccc(F)c2F)NC1=O [Example 54, (10R,14S)-14-{4-[3-chloro-2-fluoro-6-(1H-1,2,3-triazol-1-yl)phenyl]-6-oxo-1,6-dihydropyrimidin-1-yl}-3,4-difluoro-10-methyl-8,16-diazatricyclo[13.3.1.0^2,7]nonadeca-1(19),2(7),3,5,15,17-hexaen-9-one trifluoroacetate]
6 | 5 nM | C[C@@H]1CCC[C@H](n2cnc(-c3c(-n4cc(Cl)nn4)ccc(Cl)c3F)cc2=O)c2cc(ccn2)-c2ccccc2NC1=O [Example 58, (10R,14S)-14-{4-[3-chloro-6-(4-chloro-1H-1,2,3-triazol-1-yl)-2-fluorophenyl]-6-oxo-1,6-dihydropyrimidin-1-yl}-10-methyl-8,16-diazatricyclo [13.3.1.0^2,7]nonadeca-1(19),2,4,6,15,17-hexaen-9-one]
7 | 900 nM | C[C@@H]1CCC[C@H](n2cnc(-c3cc(Cl)ccc3-c3cnn(C)c3)cc2=O)c2cc(ccn2)-c2cc(F)ccc2NC1=O [Example 66, (10R,14S)-14-{4-[5-chloro-2-(1-methyl-1H-pyrazol-4-yl)phenyl]-6-oxo-1,6-dihydropyrimidin-1-yl}-4-fluoro-10-methyl-8,16-diazatricyclo[13.3.1.0^2,7]nonadeca-1(19),2(7),3,5,15,17-hexaen-9-one]
8 | 40 nM | C[C@@H]1CCC[C@H](n2cnc(-c3cc(Cl)ccc3-n3cc(Cl)nn3)cc2=O)c2cc(ccn2)-c2ccc(C(F)F)cc2NC1=O [Example 74, (10R,14S)-14-{4-[5-chloro-2-(4-chloro-1H-1,2,3-triazol-1-yl)phenyl]-6-oxo-1,6-dihydropyrimidin-1-yl}-5-(difluoromethyl)-10-methyl-8,16-diazatricyclo [13.3.1.0^2,7]nonadeca-1(19),2(7),3,5,15,17-hexaen-9-one]
9 | 100 nM | C[C@@H]1CCC[C@H](n2cnc(-c3cc(Cl)ccc3-n3cc(Cl)nn3)cc2=O)c2cc(ccn2)-c2ccc(Cl)cc2NC1=O [Example 75, (10R,14S)-5-chloro-14-{4-[5-chloro-2-(4-chloro-1H-1,2,3-triazol-1-yl)phenyl]-6-oxo-1,6-dihydropyrimidin-1-yl}-10-methyl-8,16-diazatricyclo [13.3.1.0^2,7]nonadeca-1(19),2(7),3,5,15,17-hexaen-9-one]
10 | 8 nM | C[C@@H]1CCC[C@H](n2cnc(-c3cc(Cl)ccc3-n3cc(Cl)nn3)cc2=O)c2cc(ccn2)-c2ccc(C#N)cc2NC1=O [Example 89, (10R,14S)-14-{4-[5-chloro-2-(4-chloro-1H-1,2,3-triazol-1-yl)phenyl]-6-oxo-1,6-dihydropyrimidin-1-yl}-10-methyl-9-oxo-8,16-diazatricyclo[13.3.1.0^2,7]nonadeca-1(19),2(7),3,5,15,17-hexaene-5-carbonitrile trifluoroacetate]
11 | 660 nM | C#Cc1ccc2c(c1)NC(=O)[C@H](C)CCC[C@H](n1cnc(-c3cc(Cl)ccc3-n3cc(Cl)nn3)cc1=O)c1cc-2ccn1 [Example 91, (10R,14S)-14-{4-[5-chloro-2-(4-chloro-1H-1,2,3-triazol-1-yl)phenyl]-6-oxo-1,6-dihydropyrimidin-1-yl}-5-ethynyl-10-methyl-8,16-diazatricyclo[13.3.1.0^2,7]nonadeca-1(19),2(7),3,5,15,17-hexaen-9-one]
12 | 30 nM | C[C@@H]1CCC[C@H](n2cnc(-c3cc(Cl)ccc3-n3cc(C(F)F)nn3)cc2=O)c2cc(ccn2)-c2ccccc2NC1=O [Example 94, (10R,14S)-14-(4-{5-chloro-2-[4-(difluoromethyl)-1H-1,2,3-triazol-1-yl]phenyl}-6-oxo-1,6-dihydropyrimidin-1-yl)-10-methyl-8,16-diazatricyclo[13.3.1.0^2,7]nonadeca-1(19),2(7),3,5,15,17-hexaen-9-one]
13 | 40 nM | C[C@@H]1CCC[C@H](n2cnc(-c3c(-n4cc(Cl)nn4)ccc(Cl)c3F)cc2=O)c2cc(ccn2)-c2cc(C#N)ccc2NC1=O [Example 98, (10R,14S)-14-{4-[3-Chloro-6-(4-chloro-1H-1,2,3-triazol-1-yl)-2-fluorophenyl]-6-oxo-1,6-dihydropyrimidin-1-yl}-10-methyl-9-oxo-8,16-diazatricyclo[13.3.1.0^2,7]nonadeca-1(19),2(7),3,5,15,17-hexaene-4-carbonitrile trifluoroacetate]
14 | 4900 nM | C[C@@H]1CCC[C@H](n2cnc(-c3cc(Cl)ccc3-n3cc(Cl)nn3)cc2=O)c2cc(ccn2)-c2ccc(OCC(=O)O)cc2NC1=O [Example 99, 2-{[(10R,14S)-14-{4-[5-chloro-2-(4-chloro-1H-1,2,3-triazol-1-yl)phenyl]-6-oxo-1,6-dihydropyrimidin-1-yl}-10-methyl-9-oxo-8,16-diazatricyclo[13.3.1.0^2,7]nonadeca-1(19),2(7),3,5,15,17-hexaen-5-yl]oxy}acetic acid]
15 | 32 nM | C[C@@H]1CCC[C@H](n2cnc(-c3cc(Cl)ccc3-n3cc(C(F)(F)F)nn3)cc2=O)c2cncc(c2)-c2cc(F)ccc2NC1=O [Example 103, (10R,14S)-14-(4-{5-chloro-2-[4-(trifluoromethyl)-1H-1,2,3-triazol-1-yl]phenyl}-6-oxo-1,6-dihydropyrimidin-1-yl)-4-fluoro-10-methyl-8,17-diazatricyclo[13.3.1.0^2,7]nonadeca-1(19),2(7),3,5,15,17-hexaen-9-one]
16 | 190 nM | C[C@@H]1CCC[C@H](n2cnc(-c3cc(Cl)ccc3-n3cc(Cl)nn3)cc2=O)c2cc(ccn2)-c2c(Cl)cccc2NC1=O [Example 104, (10R,14S)-3-chloro-14-{4-[5-chloro-2-(4-chloro-1H-1,2,3-triazol-1-yl)phenyl]-6-oxo-1,6-dihydropyrimidin-1-yl}-10-methyl-8,16-diazatricyclo [13.3.1.0^2,7]nonadeca-1(19),2(7),3,5,15,17-hexaen-9-one]
17 | 15 nM | C[C@@H]1CCC[C@H](n2cnc(-c3cc(Cl)ccc3-n3cc(C(F)(F)F)nn3)cc2=O)c2ccnc(c2)-c2ccc(C#N)cc2NC1=O [Example 113, (10R,14S)-14-(4-{5-chloro-2-[4-(trifluoromethyl)-1H-1,2,3-triazol-1-yl]phenyl}-6-oxo-1,6-dihydropyrimidin-1-yl)-10-methyl-9-oxo-8,18-diazatricyclo [13.3.1.0^2,7]nonadeca-1(19),2(7),3,5,15,17-hexaene-5-carbonitrile]
18 | 26 nM | C[C@@H]1CCC[C@H](n2cnc(-c3cc(Cl)ccc3-n3cc(Cl)nn3)cc2=O)c2cc(ccn2)-c2cc(C#N)ccc2NC1=O [Example 114, (10R,14S)-14-{4-[5-chloro-2-(4-chloro-1H-1,2,3-triazol-1-yl)phenyl]-6-oxo-1,6-dihydropyrimidin-1-yl}-10-methyl-9-oxo-8,16-diazatricyclo[13.3.1.0^2,7]nonadeca-1(19),2(7),3,5,15,17-hexaene-4-carbonitrile trifluoroacetate]
19 | 180 nM | COC(=O)Nc1ccc2c(c1)NC(=O)[C@H](C)CCC[C@H](n1cnc(-c3cc(Cl)cc4cnn(C)c34)cc1=O)c1cc-2ccn1 [Example 120, N-[(10R,14S)-14-[4-(5-chloro-1-methyl-1H-indazol-7-yl)-6-oxo-1,6-1-yl]-10-methyl-9-oxo-8,16-diazatricyclo[13.3.1.0^2,7]nonadeca-1(19),2(7),3,5,15,17-hexaen-5-yl]carbamate]
20 | 780 nM | C[C@@H]1CCC[C@H](n2cnc(-c3cc(Cl)ccc3-c3cnn(C(F)F)c3)cc2=O)c2cc(ccn2)-c2cc(F)ccc2NC1=O [Example 124, (10R,14S)-14-(4-{5-chloro-2-[1-(difluoromethyl)-1H-pyrazol-4-yl]phenyl}-6-oxo-1,6-dihydropyrimidin-1-yl)-4-fluoro-10-methyl-8,16-diazatricyclo [13.3.1.0^2,7]nonadeca-1(19),2(7),3,5,15,17-hexaen-9-one trifluoroacetate]
21 | 2200 nM | COC(=O)Nc1ccc2c(c1)CCCCCC[C@H](n1cnc(-c3cc(Cl)ccc3-n3cc(Cl)nn3)cc1=O)c1nc-2c[nH]1 [Example 131, methyl N-[(14S)-14-{4-[5-chloro-2-(4-chloro-1H-1,2,3-triazol-1-)phenyl]-6-oxo-1,6-dihydropyrimidin-1-yl}-16,18-diazatricyclo[13.2.1.0^2,7]octadeca-1(17),2,4,6,15 (18)-pentaen-5-yl]carb amate trifluoroacetate]
